In ChEMBL document CHEMBL5352426, “Synthesis and anti-tumor activity of nitrogen-containing derivatives of the natural product diphyllin” (Eur J Med Chem, 2022):
≈ marks a conversion by molar mass, not a printed value.

How the values were obtained:
Panc02 [1] = test: Antiproliferative activity against mouse Panc02 cells assessed as inhibition of cell proliferation incubated for 72 hrs by SRB assay; assay type: functional, cell-based; conditions: Panc02, 72 h
[2] = Metabolic stability in human liver microsome assessed as half life; assay type: ADME; conditions: liver microsomes
CFPAC-1 [3] = test: Induction of apoptosis in human CFPAC-1 cells assessed as early apoptotic cells at 10 uM incubated for 24 hrs by annexin V-FITC/PI staining based flow cytometry (reference value: 2.93 %); assay type: functional
CFPAC-1 [4] = test: Induction of cell cycle arrest in human CFPAC-1 cells assessed as accumulation at S phase at 100 nM incubated for 24 hrs by flow cytometry (reference value: 28.5 %); assay type: functional
PaTu 8988t [5] = test: Antiproliferative activity against human PaTu 8988t cells assessed as inhibition of cell proliferation at 1 uM incubated for 72 hrs by SRB assay relative to control; assay type: functional
[6] = Toxicity in C57BL/6 mouse xenografted with […] cells assessed as drug tolerance at 10 mg/kg, ip administered every two days for 20 days; assay type: organism-based; conditions: in vivo, 480 h, time 20 day
CFPAC-1 [7] = test: Induction of cell cycle arrest in human CFPAC-1 cells assessed as accumulation at G1 phase at 1000 nM incubated for 24 hrs by flow cytometry (reference value: 57.6 %); assay type: functional
MIA PaCa-2 [8] = test: Antiproliferative activity against human MIA PaCa-2 cells assessed as inhibition of cell proliferation at 1 uM incubated for 72 hrs by SRB assay relative to control; assay type: functional
CFPAC-1 [9] = test: Antiproliferative activity against human CFPAC-1 cells assessed as inhibition of cell proliferation at 1 uM incubated for 72 hrs by SRB assay relative to control; assay type: functional
MIA PaCa-2 [10] = test: Antiproliferative activity against human MIA PaCa-2 cells assessed as inhibition of cell proliferation incubated for 72 hrs by SRB assay; assay type: functional, cell-based; conditions: MIA PaCa-2, 72 h
[11] = Aqueous solubility of the compound at 1 to 2 mg measured after 24 hrs by HPLC-MS analysis; assay type: physicochemical; conditions: aqueous (not further specified), dose 1-2 mg
CFPAC-1 [12] = test: Induction of cell cycle arrest in human CFPAC-1 cells assessed as accumulation at G1 phase at 100 nM incubated for 24 hrs by flow cytometry (reference value: 57.6 %); assay type: functional
CFPAC-1 [13] = test: Induction of apoptosis in human CFPAC-1 cells assessed as late apoptotic cells at 1 uM incubated for 24 hrs by annexin V-FITC/PI staining based flow cytometry (reference value: 3.88 %); assay type: functional
CFPAC-1 [14] = test: Induction of apoptosis in human CFPAC-1 cells assessed as necrotic cells at 10 uM incubated for 24 hrs by annexin V-FITC/PI staining based flow cytometry (reference value: 0.27 %); assay type: functional
Panc02 [15] = test: Antitumor activity against […] Panc02 cells xenografted in C57BL/6 mouse assessed as tumor growth inhibition at 10 mg/kg, ip administered every two days for 20 days by electronic caliper method relative to control; assay type: functional; conditions: Panc02, 480 h, time 20 day, read-out: TGI
[16] = Metabolic stability in human liver microsome assessed as intrinsic clearance; assay type: ADME; conditions: liver microsomes, read-out: CLH
CFPAC-1 [17] = test: Induction of apoptosis in human CFPAC-1 cells assessed as viable cells at 10 uM incubated for 24 hrs by annexin V-FITC/PI staining based flow cytometry (reference value: 92.9 %); assay type: functional; conditions: read-out: Activity
[18] = Metabolic stability in mouse liver microsome assessed as half life; assay type: ADME; conditions: liver microsomes
CFPAC-1 [19] = test: Antiproliferative activity against human CFPAC-1 cells assessed as inhibition of cell proliferation incubated for 72 hrs by SRB assay; assay type: functional, cell-based; conditions: CFPAC-1, 72 h
Panc02 [20] = test: Antiproliferative activity against mouse Panc02 cells assessed as inhibition of cell proliferation at 1 uM incubated for 72 hrs by SRB assay relative to control; assay type: functional
CFPAC-1 [21] = test: Induction of cell cycle arrest in human CFPAC-1 cells assessed as accumulation at G2 phase at 1000 nM incubated for 24 hrs by flow cytometry (reference value: 11 %); assay type: functional
[22] = Antiproliferative activity against human L02 cells assessed as inhibition of cell proliferation at 1 uM incubated for 72 hrs by SRB assay relative to control; assay type: toxicity, cell-based
PaTu 8988t [23] = test: Antiproliferative activity against human PaTu 8988t cells assessed as inhibition of cell proliferation incubated for 72 hrs by SRB assay; assay type: functional, cell-based
CFPAC-1 [24] = test: Induction of apoptosis in human CFPAC-1 cells assessed as necrotic cells at 1 uM incubated for 24 hrs by annexin V-FITC/PI staining based flow cytometry (reference value: 0.27 %); assay type: functional
CFPAC-1 [25] = test: Induction of cell cycle arrest in human CFPAC-1 cells assessed as accumulation at G1 phase at 10 nM incubated for 24 hrs by flow cytometry (reference value: 57.6 %); assay type: functional
CFPAC-1 [26] = test: Induction of apoptosis in human CFPAC-1 cells assessed as early apoptotic cells at 1 uM incubated for 24 hrs by annexin V-FITC/PI staining based flow cytometry (reference value: 2.93 %); assay type: functional
CFPAC-1 [27] = test: Induction of apoptosis in human CFPAC-1 cells assessed as late apoptotic cells at 10 uM incubated for 24 hrs by annexin V-FITC/PI staining based flow cytometry (reference value: 3.88 %); assay type: functional
[28] = Metabolic stability in mouse liver microsome assessed as intrinsic clearance; assay type: ADME; conditions: liver microsomes, read-out: CLH
[29] = Antiproliferative activity against human L02 cells assessed as inhibition of cell proliferation incubated for 72 hrs by SRB assay; assay type: toxicity, cell-based
[30] = Toxicity in C57BL/6 mouse xenografted with […] cells assessed as body weight loss at 10 mg/kg, ip administered every two days for 20 days; assay type: organism-based; conditions: in vivo, 480 h, time 20 day
CFPAC-1 [31] = test: Induction of cell cycle arrest in human CFPAC-1 cells assessed as accumulation at G2 phase at 10 nM incubated for 24 hrs by flow cytometry (reference value: 11 %); assay type: functional
CFPAC-1 [32] = test: Induction of cell cycle arrest in human CFPAC-1 cells assessed as accumulation at S phase at 1000 nM incubated for 24 hrs by flow cytometry (reference value: 28.5 %); assay type: functional
[33] = Metabolic stability in mouse liver microsome assessed as hepatic clearance; assay type: ADME; conditions: microsomes
[34] = Metabolic stability in human liver microsome assessed as hepatic clearance; assay type: ADME; conditions: microsomes
CFPAC-1 [35] = test: Induction of apoptosis in human CFPAC-1 cells assessed as viable cells at 1 uM incubated for 24 hrs by annexin V-FITC/PI staining based flow cytometry (reference value: 92.9 %); assay type: functional; conditions: read-out: Activity
CFPAC-1 [36] = test: Induction of cell cycle arrest in human CFPAC-1 cells assessed as accumulation at S phase at 10 nM incubated for 24 hrs by flow cytometry (reference value: 28.5 %); assay type: functional
CFPAC-1 [37] = test: Induction of cell cycle arrest in human CFPAC-1 cells assessed as accumulation at G2 phase at 100 nM incubated for 24 hrs by flow cytometry (reference value: 11 %); assay type: functional

SMILES: COc1cc2c(N)c3c(c(-c4ccc5c(c4)OCO5)c2cc1OC)C(=O)OC3
- IC50 (Panc02 [1]): 19 nM
- half-life [2]: 88.7 min
- Activity (CFPAC-1 [3]): 2.21%
- Activity (CFPAC-1 [4]): 12.7%
- inhibition at 1 µM (PaTu 8988t [5]): 89.9%
- Activity [6]: Non-Toxic
- Activity (CFPAC-1 [7]): 83.8%
- inhibition at 1 µM (MIA PaCa-2 [8]): 91%
- inhibition at 1 µM (CFPAC-1 [9]): 78.6%
- IC50 (MIA PaCa-2 [10]): 11 nM
- solubility at 24 h [11]: 0.028 µg/mL (≈ 0.0738 µM)
- Activity (CFPAC-1 [12]): 80.9%
- Activity (CFPAC-1 [13]): 11.9%
- Activity (CFPAC-1 [14]): 0.69%
- inhibition in vivo at 10 mg/kg (Panc02 [15]): 44.7%
- microsomal CLint [16]: 15.6 µL/min/mg
- viability at 10 µM (CFPAC-1 [17]): 86.1%
- half-life [18]: 28.5 min
- IC50 (CFPAC-1 [19]): 3 nM
- inhibition at 1 µM (Panc02 [20]): 90%
- Activity (CFPAC-1 [21]): 3.66%
- inhibition at 72 h, 1 µM [22]: 34.4%
- IC50 (PaTu 8988t [23]): 37 nM
- Activity (CFPAC-1 [24]): 0.4%
- Activity (CFPAC-1 [25]): 74.3%
- Activity (CFPAC-1 [26]): 2.91%
- Activity (CFPAC-1 [27]): 11%
- microsomal CLint [28]: 48.7 µL/min/mg
- IC50 at 72 h [29]: 487 nM
- Activity [30]: Non-Toxic
- Activity (CFPAC-1 [31]): 8%
- Activity (CFPAC-1 [32]): 10.3%
- CLH [33]: 61.3 mL/min/kg
- CLH [34]: 9.6 mL/min/kg
- viability at 1 µM (CFPAC-1 [35]): 84.8%
- Activity (CFPAC-1 [36]): 15.6%
- Activity (CFPAC-1 [37]): 3.61%
